Data on 19 molecules can be found in patent US10251394B2, “Molecules having pesticidal utility, and intermediates, compositions, and processes, related thereto” (Dow AgroSciences LLC, priority 2016, dated 2019).

Assay type in all cases: in vivo
Experiment [1] concerns Yellow Fever Mosquito (Aedes aegypti). Briefly: Bioassay on Yellow Fever Mosquito (YFM) larvae, 96-well plate. The following applies: Table ABC. The procedure: Example C: Bioassays on Yellow Fever Mosquito (Aedes Aegypti, AEDSAE) (“YFM”)
Certain molecules disclosed in this document were tested against YFM using procedures described in the following paragraph. In the reporting of the results, the “GPA & YFM Rating Table” was used (See Table Section).
Master plates containing 400 μg of a molecule dissolved in 100 μL of dimethyl sulfoxide (DMSO) (equivalent to a 4000 ppm solution) are used. A master plate of assembled molecules contains 15 μL per well. To this plate, 135 μL of a 90:10 water:acetone mixture is added to each well. A robot (Biomek® NXP Laboratory Automation Workstation) is programmed to dispense 15 μL aspirations from the master plate into an empty 96-well shallow plate (“daughter” plate). There are 6 reps (“daughter” plates) created per master. The created daughter plates are then immediately infested with YFM larvae.
The day before plates are to be treated, mosquito eggs are placed in Millipore water containing liver powder to begin hatching (4 g. into 400 mL). After the daughter plates are created using the robot, they are infested with 220 μL of the liver powder/larval mosquito mixture (about 1 day-old larvae). After plates are infested with mosquito larvae, a non-evaporative lid is used to cover the plate to reduce drying. Plates are held at room temperature for 3 days prior to grading. After 3 days, each well is observed and scored based on mortality. The results are indicated in the table entitled “Table ABC: Biological Results” (See Table Section).

Experiment [2] relates to Cabbage Looper (Trichoplusia ni). Briefly: Bioassay on Cabbage Looper (CL), 128-well diet tray assay. The following applies: Cabbage Looper, Table ABC, read-out: CL rating. The method in brief: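 Second-instar larvae, one to five per well, placed on artificial diet surface-treated with 50 μg/cm^2 compound in acetone-water, eight wells per compound. Held 5-7 days at 25° C, 14:10 light-dark; percent mortality per well averaged across wells.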

For experiment [3], the system named is Beet Armyworm (Spodoptera exigua). Briefly: Bioassay on Beet Armyworm (BAW), 128-well diet tray assay. The settings on record: Beet Armyworm, Table ABC, read-out: BAW rating. The method in brief: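 Second-instar larvae (one to five per well) placed on artificial diet surface-treated with 50 μg/cm^2 test molecule in 90:10 acetone-water, dried, eight wells per molecule. Held at 25° C, 14:10 light-dark, five to seven days; percent mortality recorded per well and averaged across the eight wells.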

With `CN(CC(F)(F)F)C(=O)C1(NC(=O)c2ccc(/C(F)=C/C(c3cc(Cl)cc(Cl)c3)C(F)(F)F)cc2C(F)(F)F)CC1` (stereo not drawn) [F133, (Z)-4-(3-(3,5-Dichlorophenyl)-1,4,4,4-tetrafluorobut-1-en-1-yl)-N-(1-(methyl(2,2,2-trifluoroethyl)carbamoyl)cyclopropyl)-2-(trifluoromethyl)benzamide], the YFM rating entry in experiment [1] is reported as “B (More than 0-Less than 80)”.

Turning to `Cc1cc(C(/C=C(\F)c2ccc(C(=O)NC3(C(=O)N(C)CC(F)(F)F)CC3)c(C(F)(F)F)c2)C(F)(F)F)cc(C)c1Cl` (stereo not drawn) [F134, (Z)-4-(3-(4-Chloro-3,5-dimethylphenyl)-1,4,4,4-tetrafluorobut-1-en-1-yl)-N-(1-(methyl(2,2,2-trifluoroethyl)carbamoyl)cyclopropyl)-2-(trifluoromethyl)benzamide], the YFM rating result in experiment [1] is on record as “B (More than 0-Less than 80)”.

Consider `C[C@@H](NC(=O)c1ccc(/C(F)=C/C(c2ccc(Br)c(Cl)c2)C(F)(F)F)cc1C(F)(F)F)C(=O)N(C)CC(F)(F)F` (stereo partly drawn) [PF26, 4-((Z)-3-(4-Bromo-3-chlorophenyl)-1,4,4,4-tetrafluorobut-1-en-1-yl]-N—((R)-1-(methyl(2,2,2-trifluoroethyl)amino)-1-oxopropan-2-yl)-2-(trifluoromethyl)benzamide], for which the pest or weed control at 50 µg/cm2 in experiment [2] and in experiment [3] was 50 to 100% throughout.

`CN(CC(F)(F)F)C(=O)C1(NC(=O)c2ccc(/C(F)=C/C(c3ccc(Br)c(Cl)c3)C(F)(F)F)cc2C(F)(F)F)CC1` (stereo not drawn) [PF28, (Z)-4-(3-(4-Bromo-3-chlorophenyl)-1,4,4,4-tetrafluorobut-1-en-1-yl]-N-(1-(methyl(2,2,2-trifluoroethyl)carbamoyl)cyclopropyl)-2-(trifluoromethyl)benzamide]: the pest or weed control at 50 µg/cm2 in experiment [2] and in experiment [3] was 50 to 100% each time.

`CN(CC(F)(F)F)C(=O)CNC(=O)c1ccc(/C(F)=C/C(c2cc(Cl)cc(C(F)(F)F)c2)C(F)(F)F)cc1C(F)(F)F` (stereo not drawn) [PF41, (Z)-4-(3-(3-Chloro-5-(trifluoromethyl)phenyl)-1,4,4,4-tetrafluorobut-1-en-1-yl)-N-(2-(methyl(2,2,2-trifluoroethyl)amino)-2-oxoethyl)-2-(trifluoromethyl)benzamide]: the pest or weed control at 50 µg/cm2 in experiment [2] and in experiment [3] was 50 to 100% throughout.

Take `C[C@@H](NC(=O)c1ccc(/C(F)=C/C(c2cc(Cl)cc(C(F)(F)F)c2)C(F)(F)F)cc1C(F)(F)F)C(=O)NCC(F)(F)F` (stereo partly drawn) [PF42, 4-((Z)-3-(3-Chloro-5-(trifluoromethyl)phenyl)-1,4,4,4-tetrafluorobut-1-en-1-yl)-N-((1R)-1-oxo-1-((2,2,2-trifluoroethyl)amino)propan-2-yl)-2-(trifluoromethyl)benzamide]: the pest or weed control at 50 µg/cm2 in experiment [2] and in experiment [3] was 50 to 100% each time.

With `C[C@@H](NC(=O)c1ccc(/C(F)=C/C(c2cc(Cl)cc(C(F)(F)F)c2)C(F)(F)F)cc1C(F)(F)F)C(=O)N(C)CC(F)(F)F` (stereo partly drawn) [PF43, 4-((Z)-3-(3-Chloro-5-(trifluoromethyl)phenyl)-1,4,4,4-tetrafluorobut-1-en-1-yl)-N—((R)-1-(methyl(2,2,2-trifluoroethyl)amino)-1-oxopropan-2-yl)-2-(trifluoromethyl)benzamide], the pest or weed control at 50 µg/cm2 in experiment [2] and in experiment [3] was 50 to 100% each time.

`O=C(NC1(C(=O)NCC(F)(F)F)CC1)c1ccc(/C(F)=C/C(c2cc(Cl)cc(C(F)(F)F)c2)C(F)(F)F)cc1C(F)(F)F` (stereo not drawn) [PF44]: the pest or weed control at 50 µg/cm2 in experiment [2] and in experiment [3] was 50 to 100% in each case.

For the molecule `CN(CC(F)(F)F)C(=O)C1(NC(=O)c2ccc(/C(F)=C/C(c3cc(Cl)cc(C(F)(F)F)c3)C(F)(F)F)cc2C(F)(F)F)CC1` (stereo not drawn) [PF45, (Z)-4-(3-(3-Chloro-5-(trifluoromethyl)phenyl)-1,4,4,4-tetrafluorobut-1-en-1-yl)-N-(1-(methyl(2,2,2-trifluoroethyl)carbamoyl)cyclopropyl)-2-(trifluoromethyl)benzamide], the pest or weed control at 50 µg/cm2 in experiment [2] and in experiment [3] was 50 to 100% each time.

For the molecule `Cc1cc(C(/C=C(\F)c2ccc(C(=O)NCC(=O)N(C)CC(F)(F)F)c(C(F)(F)F)c2)C(F)(F)F)ccc1Cl` (stereo not drawn) [PF47, (Z)-4-(3-(4-Chloro-3-methylphenyl)-1,4,4,4-tetrafluorobut-1-en-1-yl)-N-(2-(methyl(2,2,2-trifluoroethyl)amino]-2-oxoethyl)-2-(trifluoromethyl)benzamide], the pest or weed control at 50 µg/cm2 in experiment [2] and in experiment [3] was 50 to 100% each time.

On to `Cc1cc(C(/C=C(\F)c2ccc(C(=O)N[C@H](C)C(=O)NCC(F)(F)F)c(C(F)(F)F)c2)C(F)(F)F)ccc1Cl` (stereo partly drawn) [PF48], for which the pest or weed control at 50 µg/cm2 in experiment [2] and in experiment [3] was 50 to 100% in each case.

For `Cc1cc(C(/C=C(\F)c2ccc(C(=O)N[C@H](C)C(=O)N(C)CC(F)(F)F)c(C(F)(F)F)c2)C(F)(F)F)ccc1Cl` (stereo partly drawn) [PF49, 4-((Z)-3-(4-Chloro-3-methylphenyl)-1,4,4,4-tetrafluorobut-1-en-1-yl)-N—((R)-1-(methyl(2,2,2-trifluoroethyl)amino)-1-oxopropan-2-yl)-2-(trifluoromethyl)benzamide], the pest or weed control at 50 µg/cm2 in experiment [2] and in experiment [3] was 50 to 100% each time.

As for `Cc1cc(C(/C=C(\F)c2ccc(C(=O)NC3(C(=O)NCC(F)(F)F)CC3)c(C(F)(F)F)c2)C(F)(F)F)ccc1Cl` (stereo not drawn) [PF50, (Z)-4-(3-(4-Chloro-3-methylphenyl)-1,4,4,4-tetrafluorobut-1-en-1-yl)-N-(1-((2,2,2-trifluoroethyl)carbamoyl)cyclopropyl)-2-(trifluoromethyl)benzamide], the pest or weed control at 50 µg/cm2 in experiment [2] and in experiment [3] was 50 to 100% throughout.

Turning to `Cc1cc(C(/C=C(\F)c2ccc(C(=O)NC3(C(=O)N(C)CC(F)(F)F)CC3)c(C(F)(F)F)c2)C(F)(F)F)ccc1Cl` (stereo not drawn) [PF51, (Z)-4-(3-(4-Chloro-3-methylphenyl)-1,4,4,4-tetrafluorobut-1-en-1-yl)-N-(1-(methyl(2,2,2-trifluoroethyl)carbamoyl)cyclopropyl)-2-(trifluoromethyl)benzamide], the pest or weed control at 50 µg/cm2 in experiment [2] and in experiment [3] was 50 to 100% each time.

Take `C[C@@H](NC(=O)c1ccc(/C(F)=C/C(c2cc(Cl)c(Cl)c(Cl)c2)C(C)(F)F)cc1Cl)C(=O)NCC(F)(F)F` (stereo partly drawn) [PF60, 2-Chloro-N—((R)-1-oxo-1-((2,2,2-trifluoroethyl)amino)propan-2-yl)-4-((Z)-1,4,4-trifluoro-3-(3,4,5-trichlorophenyl)pent-1-en-1-yl)benzamide]: the pest or weed control at 50 µg/cm2 in experiment [2] and in experiment [3] was 50 to 100% throughout.

As to `CC(F)(F)C(/C=C(\F)c1ccc(C(=O)NC2(C(=O)NCC(F)(F)F)CC2)c(Cl)c1)c1cc(Cl)c(Cl)c(Cl)c1` (stereo not drawn) [PF62, (Z)-2-Chloro-4-(1,4,4-trifluoro-3-(3,4,5-trichlorophenyl)pent-1-en-1-yl)-N-(1-((2,2,2-trifluoroethyl)carbamoyl)cyclopropyl)benzamide], the pest or weed control at 50 µg/cm2 in experiment [2] and in experiment [3] was 50 to 100% throughout.

With `F/C(=C\C(c1cc(Cl)c(Cl)c(Cl)c1)C(F)(F)F)c1ccc(C(=S)NCC(=S)NCC(F)(F)F)c(C(F)(F)F)c1` (stereo not drawn) [PF88, (Z)-4-(1,4,4,4-tetrafluoro-3-(3,4,5-trichlorophenyl)but-1-en-1-yl)-N-(2-thioxo-2-((2,2,2-trifluoroethyl)amino)ethyl)-2-(trifluoromethyl)benzothioamide], the pest or weed control at 50 µg/cm2 in experiment [2] and in experiment [3] was 50 to 100% in each case.

Turning to `C[C@@H](NC(=O)c1ccc(/C(F)=C/C(c2cc(Cl)c(Cl)c(Cl)c2)C(F)(F)F)cc1C(F)(F)F)C(=S)NCC(F)(F)F` (stereo partly drawn) [PF96, 4-((2)-1,4,4,4-Tetrafluoro-3-(3,4,5-trichlorophenyl)but-1-en-1-yl)-N—((R)-1-thioxo-1-((2,2,2-trifluoroethyl)amino)propan-2-yl)-2-(trifluoromethyl)benzamide], the pest or weed control at 50 µg/cm2 in experiment [2] and in experiment [3] was 50 to 100% each time.

Take `O=C(NC1(C(=S)NCC(F)(F)F)CC1)c1ccc(/C(F)=C/C(c2cc(Cl)c(Cl)c(Cl)c2)C(F)(F)F)cc1C(F)(F)F` (stereo not drawn) [PF98, (Z)-4-(1,4,4,4-Tetrafluoro-3-(3,4,5-trichlorophenyl)but-1-en-1-yl)-N-(1-((2,2,2-trifluoroethyl)carbamothioyl)cyclopropyl)-2-(trifluoromethyl)benzamide]: the pest or weed control at 50 µg/cm2 in experiment [2] and in experiment [3] was 50 to 100% in each case.
